# PubChem BioAssay AID256 (DTP/NCI, 2004)
# Values joined by “and” are separate entries in the source; they are usually repeats but may differ in a detail not shown here. Identical values can stand only once. Toxic doses and inconclusive results are not listed.
# Tested on: CD2F1 mice, L1210 leukemia ip, survival T/C
# Assay: NCI In Vivo Anticancer Drug Screen. Data for tumor model L1210 Leukemia (intraperitoneal) in CD2F1 (CDF1) mice
# Details: higher = longer survival
# In short: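 Mice carrying a transplanted tumor received test compound or vehicle alone. The value is the measurement in the treated group divided by that in the vehicle-treated control group.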
# [1] = endpoint: mean survival time, dose: 100.0 mg/kg/injection, schedule: Q04DX003 (ip), vehicle: saline with Tween-80
# [2] = endpoint: mean survival time, dose: 100.0 mg/kg/injection, schedule: Q01DX001 (ip), vehicle: saline
# [3] = endpoint: mean survival time, dose: 200.0 mg/kg/injection, schedule: Q01DX001 (ip), vehicle: saline
# [4] = endpoint: mean survival time, dose: 400.0 mg/kg/injection, schedule: Q01DX001 (ip), vehicle: saline
# [5] = endpoint: mean survival time, dose: 25.0 mg/kg/injection, schedule: Q01DX009 (ip), vehicle: water
# [6] = endpoint: mean survival time, dose: 50.0 mg/kg/injection, schedule: Q01DX009 (ip), vehicle: water
# [7] = endpoint: mean survival time, dose: 100.0 mg/kg/injection, schedule: Q01DX009 (ip), vehicle: saline with Tween-80
# [8] = endpoint: mean survival time, dose: 200.0 mg/kg/injection, schedule: Q01DX009 (ip), vehicle: saline with Tween-80
# [9] = endpoint: mean survival time, dose: 400.0 mg/kg/injection, schedule: Q01DX009 (ip), vehicle: saline with Tween-80
# [10] = endpoint: mean survival time, dose: 100.0 mg/kg/injection, schedule: Q01DX009 (ip), vehicle: other
# [11] = endpoint: mean survival time, dose: 200.0 mg/kg/injection, schedule: Q01DX009 (ip), vehicle: other
# [12] = endpoint: mean survival time, dose: 200.0 mg/kg/injection, schedule: Q04DX003 (ip), vehicle: saline with Tween-80
# [13] = endpoint: mean survival time, dose: 50.0 mg/kg/injection, schedule: Q01DX009 (ip), vehicle: saline with Tween-80
# [14] = endpoint: mean survival time, dose: 25.0 mg/kg/injection, schedule: Q01DX009 (ip), vehicle: saline with Tween-80
smiles,measurement,setting,value
CCCCc1ccc(O)c(CN2CCCCC2)c1,T/C,"endpoint: mean survival time, dose: 25.0 mg/kg/injection, schedule: Q04DX003 (ip), vehicle: saline with Tween-80",97 % of control
same,T/C,"endpoint: mean survival time, dose: 50.0 mg/kg/injection, schedule: Q04DX003 (ip), vehicle: saline with Tween-80",102 % of control
same,T/C,[1],98 % of control and 100 % of control
CC(=O)C(C)(c1ccccc1)N(Cc1ccccc1)C(=O)c1ccccc1 (centres undefined),T/C,[2],96 % of control
same,T/C,[3],98 % of control
same,T/C,[4],96 % of control
Cc1ccc(S(=O)(=O)NN=C(c2ccccc2)c2ccccc2)cc1,T/C,[5],101 % of control
same,T/C,[6],101 % of control
same,T/C,"endpoint: mean survival time, dose: 100.0 mg/kg/injection, schedule: Q01DX009 (ip), vehicle: water",95 % of control
same,T/C,"endpoint: mean survival time, dose: 200.0 mg/kg/injection, schedule: Q01DX009 (ip), vehicle: water",95 % of control
CC(C)(C)OOC(=O)c1ccc([N+](=O)[O-])cc1,T/C,[7],101 % of control
same,T/C,[8],97 % of control
same,T/C,[9],101 % of control
CC(=O)NC(CO)C(O)c1ccc(N)cc1 (centres undefined),T/C,"endpoint: mean survival time, dose: 100.0 mg/kg/injection, schedule: Q01DX001 (ip), vehicle: saline with Tween-80",97 % of control
same,T/C,[7],102 % of control
same,T/C,"endpoint: mean survival time, dose: 200.0 mg/kg/injection, schedule: Q01DX001 (ip), vehicle: saline with Tween-80",101 % of control
same,T/C,[8],96 % of control
same,T/C,"endpoint: mean survival time, dose: 400.0 mg/kg/injection, schedule: Q01DX001 (ip), vehicle: saline with Tween-80",104 % of control
same,T/C,[9],96 % of control
CCCCCC(C=O)C(O)(C(F)(F)F)C(F)(F)Cl (centres undefined),T/C,"endpoint: mean survival time, dose: 100.0 mg/kg/injection, schedule: Q04DX003 (ip), vehicle: Klucel (hydroxypropylcellulose) (HPC)",96 % of control
same,T/C,"endpoint: mean survival time, dose: 200.0 mg/kg/injection, schedule: Q04DX003 (ip), vehicle: Klucel (hydroxypropylcellulose) (HPC)",91 % of control
same,T/C,"endpoint: mean survival time, dose: 400.0 mg/kg/injection, schedule: Q04DX003 (ip), vehicle: Klucel (hydroxypropylcellulose) (HPC)",96 % of control
O=C(CC(O)(C(F)(F)F)C(F)(F)F)c1ccc(Cl)cc1,T/C,"endpoint: mean survival time, dose: 50.0 mg/kg/injection, schedule: Q01DX009 (ip), vehicle: other",103 % of control
same,T/C,[10],103 % of control
same,T/C,[1],107 % of control
same,T/C,[11],87 % of control
same,T/C,[12],107 % of control
O=C(Nc1c(Cl)cccc1Cl)OCCOc1ccc(Br)cc1,T/C,[13],100 % of control
same,T/C,[7],103 % of control
same,T/C,[8],107 % of control
NC(=O)N(CCCl)N=O,T/C,"endpoint: mean survival time, dose: 1.0 mg/kg/injection, schedule: Q01DX007 (ip), vehicle: saline",292 % of control
same,T/C,"endpoint: mean survival time, dose: 1.0 mg/kg/injection, schedule: Q01DX009 (ip), vehicle: saline",273 % of control
same,T/C,"endpoint: mean survival time, dose: 1.0 mg/kg/injection, schedule: Q03DX003 (ip), vehicle: saline",187 % of control
same,T/C,"endpoint: mean survival time, dose: 1.0 mg/kg/injection, schedule: Q04DX003 (ip), vehicle: saline",188 % of control
same,T/C,"endpoint: mean survival time, dose: 2.0 mg/kg/injection, schedule: Q01DX007 (ip), vehicle: saline",242 % of control
same,T/C,"endpoint: mean survival time, dose: 2.0 mg/kg/injection, schedule: Q01DX009 (ip), vehicle: saline",220 % of control
same,T/C,"endpoint: mean survival time, dose: 2.0 mg/kg/injection, schedule: Q03DX003 (ip), vehicle: saline",286 % of control
same,T/C,"endpoint: mean survival time, dose: 2.0 mg/kg/injection, schedule: Q04DX003 (ip), vehicle: saline",284 % of control
same,T/C,"endpoint: mean survival time, dose: 4.0 mg/kg/injection, schedule: Q01DX007 (ip), vehicle: saline",105 % of control
same,T/C,"endpoint: mean survival time, dose: 4.0 mg/kg/injection, schedule: Q01DX009 (ip), vehicle: saline",101 % of control
same,T/C,"endpoint: mean survival time, dose: 4.0 mg/kg/injection, schedule: Q04DX003 (ip), vehicle: saline",308 % of control
CNC(C(=O)O)c1ccccc1 (centres undefined),T/C,[14],101 % of control
same,T/C,[13],100 % of control
same,T/C,[7],92 % of control and 94 % of control
same,T/C,[1],92 % of control
same,T/C,[12],101 % of control
same,T/C,"endpoint: mean survival time, dose: 400.0 mg/kg/injection, schedule: Q04DX003 (ip), vehicle: saline with Tween-80",89 % of control
COc1cc(/C=N\Nc2ccccc2[N+](=O)[O-])cc(OC)c1OC,T/C,[7],93 % of control
same,T/C,[8],103 % of control
same,T/C,[9],98 % of control
S=C1N(C2CCCCC2)CCN1C1CCCCC1,T/C,"endpoint: mean survival time, dose: 25.0 mg/kg/injection, schedule: Q01DX001 (ip), vehicle: Klucel (hydroxypropylcellulose) (HPC)",108 % of control
same,T/C,"endpoint: mean survival time, dose: 50.0 mg/kg/injection, schedule: Q01DX001 (ip), vehicle: Klucel (hydroxypropylcellulose) (HPC)",108 % of control
same,T/C,"endpoint: mean survival time, dose: 100.0 mg/kg/injection, schedule: Q01DX001 (ip), vehicle: Klucel (hydroxypropylcellulose) (HPC)",103 % of control
O=C(NNC(=O)c1c(F)c(F)c(F)c(F)c1F)c1c(F)c(F)c(F)c(F)c1F,T/C,[7],97 % of control
same,T/C,[8],97 % of control
COc1ccc(O)cc1C,T/C,[10],96 % of control
same,T/C,[11],102 % of control
same,T/C,"endpoint: mean survival time, dose: 400.0 mg/kg/injection, schedule: Q01DX009 (ip), vehicle: other",98 % of control
Cc1c(C(=O)O)cc([N+](=O)[O-])cc1[N+](=O)[O-],T/C,[7],102 % of control
same,T/C,[8],100 % of control
same,T/C,[9],96 % of control
CCOC(=O)CN(CC(=O)OCC)c1ccc(C(C)=O)cc1,T/C,"endpoint: mean survival time, dose: 100.0 mg/kg/injection, schedule: Q04DX003 (ip), vehicle: saline",105 % of control
same,T/C,"endpoint: mean survival time, dose: 200.0 mg/kg/injection, schedule: Q04DX003 (ip), vehicle: saline",94 % of control
Nc1ccccc1Nc1ccncc1,T/C,[14],100 % of control
same,T/C,[13],101 % of control
same,T/C,[1],91 % of control
CCC/C=C/CCOC(=N)C(Cl)(Cl)Cl,T/C,[13],92 % of control
same,T/C,[7],92 % of control
same,T/C,[8],88 % of control
CC[C@@H](C)[C@H]([C@H](CC(=O)N1CCC[C@@H]1[C@@H](OC)[C@H](C)C(=O)N[C@H](Cc1ccccc1)c1nccs1)OC)N(C)C(=O)[C@H](NC(=O)[C@@H](C(C)C)N(C)C)C(C)C,T/C,"endpoint: median survival time, dose: 1.63 micrograms/kg/injection, schedule: Q01DX005 (ip), vehicle: saline + alcohol",119 % of control
same,T/C,"endpoint: median survival time, dose: 6.5 micrograms/kg/injection, schedule: Q01DX005 (ip), vehicle: saline + alcohol",160 % of control
same,T/C,"endpoint: median survival time, dose: 26.0 micrograms/kg/injection, schedule: Q01DX005 (ip), vehicle: saline + alcohol",86 % of control
CC1(CC(=O)O)NC(=O)NC1=O (centres undefined),T/C,[2],102 % of control
same,T/C,"endpoint: mean survival time, dose: 100.0 mg/kg/injection, schedule: Q04DX002 (ip), vehicle: saline with Tween-80",96 % of control
same,T/C,[3],97 % of control
same,T/C,"endpoint: mean survival time, dose: 200.0 mg/kg/injection, schedule: Q04DX002 (ip), vehicle: saline with Tween-80",101 % of control
same,T/C,[4],100 % of control
same,T/C,"endpoint: mean survival time, dose: 400.0 mg/kg/injection, schedule: Q04DX002 (ip), vehicle: saline with Tween-80",96 % of control
COc1ccc(C(=O)/C=C/c2ccc3cc(OC)c(OC)cc3c2)cc1OC,T/C,[5],98 % of control
same,T/C,[6],102 % of control
O=C(/C=C\c1ccccc1)/C=C/c1ccccc1,T/C,"endpoint: mean survival time, dose: 177.0 mg/kg/injection, schedule: Q01DX001 (ip), vehicle: other",96 % of control
same,T/C,"endpoint: mean survival time, dose: 267.0 mg/kg/injection, schedule: Q01DX001 (ip), vehicle: other",92 % of control
same,T/C,"endpoint: mean survival time, dose: 400.0 mg/kg/injection, schedule: Q01DX001 (ip), vehicle: other",104 % of control
same,T/C,"endpoint: mean survival time, dose: 600.0 mg/kg/injection, schedule: Q01DX001 (ip), vehicle: other",107 % of control
Cc1cn(C2CC3OP(O)(=S)OCC3O2)c(=O)[nH]c1=O (centres undefined),T/C,"endpoint: mean survival time, dose: 8.7 mg/kg/injection, schedule: Q01DX005 (ip), vehicle: water",101 % of control
same,T/C,"endpoint: mean survival time, dose: 17.5 mg/kg/injection, schedule: Q01DX005 (ip), vehicle: water",102 % of control
same,T/C,"endpoint: mean survival time, dose: 35.0 mg/kg/injection, schedule: Q01DX005 (ip), vehicle: water",101 % of control
same,T/C,"endpoint: mean survival time, dose: 70.0 mg/kg/injection, schedule: Q01DX005 (ip), vehicle: water",104 % of control
CSc1ncnc2c1cnn2C1OC(CO)C(O)C1O (centres undefined),T/C,"endpoint: mean survival time, dose: 12.5 mg/kg/injection, schedule: Q01DX005 (ip), vehicle: other",93 % of control
same,T/C,"endpoint: mean survival time, dose: 25.0 mg/kg/injection, schedule: Q01DX005 (ip), vehicle: other",100 % of control
same,T/C,"endpoint: mean survival time, dose: 50.0 mg/kg/injection, schedule: Q01DX005 (ip), vehicle: other",105 % of control
same,T/C,"endpoint: mean survival time, dose: 100.0 mg/kg/injection, schedule: Q01DX005 (ip), vehicle: other",122 % of control and 100 % of control
same,T/C,"endpoint: mean survival time, dose: 200.0 mg/kg/injection, schedule: Q01DX005 (ip), vehicle: other",119 % of control and 112 % of control
CCCCCCCCCCCCCCCC(=O)NCC[N+](C)(CC)CC,T/C,"endpoint: mean survival time, dose: 75.0 mg/kg/injection, schedule: Q01DX001 (ip), vehicle: saline",109 % of control
